According to patent US8273780B2, “Polycyclic antagonists of lysophosphatidic acid receptors” (Amira Pharmaceuticals, Inc., priority 2009, dated 2012):

Experiments:
C57BL/6 mice = experiment: Mouse unilateral ureteral obstruction kidney fibrosis model; type: in vivo; conditions: compared to untreated group
Procedure: Female C57BL/6 mice (Harlan, 20-25 g) housed 4/cage will be given free access to food and water and allowed to acclimate for at least 7 days prior to test initiation. After the habituation phase, mice undergo unilateral ureteral obstruction (UUO) surgery or sham to left kidney. Briefly, a longitudinal, upper left incision is performed to expose the left kidney. The renal artery is located and 6/0 silk thread is passed between the artery and the ureter. The thread is looped around the ureter and knotted 3 times insuring full ligation of ureter. The kidney is returned to abdomen, the abdominal muscle is sutured and the skin is stapled closed. Mice are returned to their cages and monitored daily for the duration of the experiment. Test compound or vehicle is delivered po, ip or sc daily. The route and frequency of dosing is based on previously determined pharmacokinetic properties. All animals are sacrificed using inhaled isoflurane 4, 8 or 14 days after UUO surgery. Following sacrifice blood is drawn via cardiac puncture, the kidneys are harvested and one half of the kidney is frozen at −80° C. and the other half is fixed in 10% neutral buffered formalin for histological assessment of kidney fibrosis using light microscopy (10× magnification). Kidney tissue homogenates are analyzed for collagen levels using Sircol (Biocolor Ltd, UK). Fixed kidney tissue is also stained using hematoxylin and eosin (H&E) and trichrome and kidney fibrosis is determined by quantitative, computer-assisted densitometry of collagen in […] tissue sections using light microscopy and collagen content in kidney lysate. Plasma and kidney tissue lysates are also analyzed for concentrations of inflammatory, pro-fibrotic and tissue injury biomarkers including transforming growth factor β1, hyaluronic acid, tissue inhibitor of metalloproteinase-1, and plasminogen activator inhibitor-1, using commercially available ELISA. The resulting data are plotted using Graphpad prism and statistical differences between groups determined.

C57B1/6 mice = experiment: Bleomycin-induced lung fibrosis model in mice; type: in vivo; conditions: for total lung collagen: chronic setting (14 day bleomycin model)
Text: Female C57B1/6 mice (Harlan, 25-30 g) are housed 4 per cage, given free access to food and water and allowed to acclimate for at least 7 days prior to test initiation. After the habituation phase, mice are lightly anesthetized with isoflurane (5% in 100% O2) and administered with bleomycin sulfate (0.01-5 U/kg, Henry Schein) via intratracheal instillation (Cuzzocrea S et al. Am J Physiol Lung Cell Mol Physiol. 2007 May; 292(5):L1095-104. Epub 2007 Jan. 12.). Mice are returned to their cages and monitored daily for the duration of the experiment. Test compound or vehicle is delivered po, ip or sc daily. The route and frequency of dosing is based on previously determined pharmacokinetic properties. All animals are sacrificed using inhaled isoflurane 3, 7, 14, 21 or 28 days after bleomycin instillation. Following sacrifice, mice are intubated with a 20 gauge angiocatheter attached to a 1 ml syringe. Lungs are lavaged with saline to obtain bronchoalveolar lavage fluid (BALF) and then removed and fixed in 10% neutral buffered formalin for subsequent histopathological analysis. BALF is centrifuged for 10 min at 800×g to pellet the cells and the cell supernatant removed and frozen at −80° C. for subsequent protein analysis using the DC protein assay kit (Biorad, Hercules, Calif.) and soluble collagen analysis using Sircol (Biocolor Ltd, UK). BALF is analyzed for concentrations of inflammatory, pro-fibrotic and tissue injury biomarkers including transforming growth factor β1, hyaluronic acid, tissue inhibitor of metalloproteinase-1, matrix matelloproteinase-7, connective tissue growth factor and lactate dehydrogenase activity, using commercially available ELISA. The cell pellet is re-suspended in PBS. Total cell counts are then obtained using a Hemavet hematology system (Drew Scientific, Wayne, Pa.) and differential cells counts are determined using Shandon cytospin (Thermo Scientific, Waltham, Mass.). Lung tissue is stained using hematoxylin and eosin (H&E) and trichrome and lung fibrosis is determined by semiquantitative histopathological scoring (Ashcroft T. et al. J. Clin. Path. 1988; 41; 4, 467-470) using light microscopy (10× magnification) and quantitative, computer-assisted densitometry of collagen in lung tissue sections using light microscopy. The data are plotted using Graphpad prism and statistical differences between groups determined.

Human LPA3 = biological target: T1, Human LPA3 (Homo sapiens, UniProt Q9UBY5); experiment: LPA3 calcium flux assay; type: cell-based; conditions: CHO cells expressing human LPA3, 10 nM LPA; read-out: HLPA3 Ca Flux IC50
T1 construct: The full-length cDNA fragment for human LPA3 was obtained by PCR from the vector; expressed in transfected cells; cDNA from the Missouri S&T cDNA Resource Center
T1 sequence (Q9UBY5 1-353): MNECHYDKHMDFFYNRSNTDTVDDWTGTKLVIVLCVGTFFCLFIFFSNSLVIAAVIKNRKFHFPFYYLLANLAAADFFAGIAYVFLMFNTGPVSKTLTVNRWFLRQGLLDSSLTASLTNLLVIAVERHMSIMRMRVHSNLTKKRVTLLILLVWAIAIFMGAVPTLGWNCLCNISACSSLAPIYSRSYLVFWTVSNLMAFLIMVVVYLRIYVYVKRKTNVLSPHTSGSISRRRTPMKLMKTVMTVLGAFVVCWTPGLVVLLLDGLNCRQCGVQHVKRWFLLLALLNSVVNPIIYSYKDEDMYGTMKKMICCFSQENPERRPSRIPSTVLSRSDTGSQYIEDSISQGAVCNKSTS
Procedure: A vector containing the human LPA3 receptor cDNA was obtained from the Missouri S&T cDNA Resource Center (www.cdna.org). The full-length cDNA fragment for human LPA3 was obtained by PCR from the vector. The nucleotide sequence of the cloned human LPA3 was determined by sequencing and confirmed to be identical to the published human LPA3 sequence (NCBI accession number NM_012152). The cDNA was cloned into the pcDNA5/FRT expression plasmid and transfected in CHO cells using lipofectamine 2000 (Invitrogen Corp., USA). Clones stably expressing human LPA3 were selected using hygromycin and identified as cells that show Ca-influx in response to LPA.
Human LPA1 or LPA3 expressing CHO cells are seeded at 20,000-45,000 cells per well in a 96-well poly-D-lysine coated plate one or two days before the assay. Prior to the assay, the cells are washed once with PBS and then cultured in serum-free media overnight. On the day of the assay, a calcium indicator dye (Calcium 4, Molecular Devices) in assay buffer (HBSS with Ca^2+and Mg^2+ and containing 20 mM Hepes and 0.3% fatty-acid free human serum albumin) is added to each well and incubation continued for 1 hour at 37° C. 10 μl of test compounds in 2.5% DMSO are added to the cells and incubation continued at room temperature for 30 minutes. Cells are the stimulated by the addition of 10 nM LPA and intracellular Ca^2+ measured using the Flexstation 3 (Molecular Devices). IC50s are determined using Graphpad prism analysis of drug titration curves.

SMILES: Cc1noc(-c2ccc(-c3ccc(C4(C(=O)O)CC4)cc3)cc2)c1NC(=O)O[C@H](C)c1ccccc1 [Compound 1, 1-{4′-[3-Methyl-4-((R)-1-phenyl-ethoxycarbonylamino)-isoxazol-5-yl]-biphenyl-4-yl}-cyclopropanecarboxylic acid]
- hyaluronic acid (C57BL/6 mice): reduced
- plasminogen activator inhibitor-1 (C57BL/6 mice): reduced
- tissue inhibitor of metalloproteinase-1 (C57BL/6 mice): reduced
- total kidney collogen (C57BL/6 mice): reduced
- transforming growth factor β1 (C57BL/6 mice): reduced
- collagen Type 1 (C57BL/6 mice; kidney): reduced
- BALF MMP-7 (C57B1/6 mice; 7-day bleomycin model): reduced
- BALF TGFβ1 (C57B1/6 mice; 7-day bleomycin model): reduced
- BALF collagen (C57B1/6 mice; 7-day bleomycin model): reduced
- BALF hyaluronan (C57B1/6 mice; 7-day bleomycin model): reduced
- BALF inflammatory cell influx (C57B1/6 mice; 7-day bleomycin model): reduced
- BALF protein (C57B1/6 mice; 7-day bleomycin model): reduced
- collagen concentration in BALF (C57B1/6 mice; acute setting (3 day)): significantly reduced
- total protein concentration in BALF (C57B1/6 mice; acute setting (3 day)): significantly reduced
- total lung collagen (C57B1/6 mice; dosed prophylactically (day 0-day 14)): decreased
- total lung collagen (C57B1/6 mice; dosed therapeutically (day 3-day 14)): decreased
- IC50 (Human LPA3): 1 to 10 µM
